Laboratory results published in patent publication US9221746B2, “Homo- and hetero-polyamino-acid derivatives of fullerene C60, method for producing same, and pharmaceutical compositions based on said derivatives” (priority 2011, dated 2015).

What was measured:
[1] = test system: A/IIV-Moscow/01/2009 (H1N1)swl influenza virus; experiment: Reduction of influenza virus reproduction in MDCK cell culture (ELISA); assay type: cell-based; conditions: for Percent reduction of influenza virus reproduction in MDCK cell culture relative to control, average values: average of the three experiments
Description: The agent was diluted with DMSO (5 mg substance+0.5 mL DMSO), followed by addition of 4.5 mL MEM cell cultural medium to obtain in this way a stock solution with a concentration of 1.0 […].
The antiviral activity was ascertained from the reduction of influenza virus reproduction in the MDCK cell culture, as recognized by ELISA.
For this purpose, MDCK cells were grown on 96-well plates to obtain a complete monolayer, washed from the growth medium, and added with substances in a twofold concentration in 100 mcL MEM medium. Infection with the virus in a working dose ranging from 100 to 1000 TCD50 was carried out in two protocols: 2 hours following the insertion of the substances and simultaneously. The plates were incubated in a thermostat filled with CO2 for 24 hours at 37° C. Following the incubation, the medium was removed and cells were fixed by 80% acetone in PBS for 15 minutes and then well dried, and ELISA was performed by consecutive adsorption of specific reagents, namely, monoclonal antibodies, conjugate, and substrate (orthophenylenediamine). The degree of reaction was monitored by measuring optical density at 492 nm on a Biokom spectrophotometer. Each virus dilution was studied in three replicas, for which an average optical density (OD) value was calculated. Percent inhibition was determined as the quotient of the difference between the experimental OD and the OD of the cell control, divided by the difference between the OD of the virus control and the OD of the cell control, multiplied by 100%. The data gained in this way were used to determine the minimal concentration of the agent causing the 50.0% inhibition of viral reproduction (MIC50).
The inhibition of A(H1N1) influenza virus replication was ascertained in three experiments with different multiplicities of infection.

[2] = test system: human lymphoblastoid cells; experiment: Cytotoxicity in human lymphoblastoid cells model; assay type: cell-based

Fullerene Poly(Aminocaproic Acid) of Formula C60(H3){NH(CH2)5COO—}3{NH3^+(CH2)5COOH}3 [Agent No. 1]
Percent (%) reduction of influenza virus reproduction in MDCK cell culture relative to control ([1]; 6.25 mcg/mL, 2 h prior to infection, 1st value of cell (experiments with different multiplicities of infection)): 27.0%
Percent (%) reduction of influenza virus reproduction in MDCK cell culture relative to control ([1]; 6.25 mcg/mL, 2 h prior to infection, 2nd value of cell): 28.0%
Percent (%) reduction of influenza virus reproduction in MDCK cell culture relative to control ([1]; 6.25 mcg/mL, 2 h prior to infection, 3rd value of cell): 0%
Percent reduction of influenza virus reproduction in MDCK cell culture relative to control, average values ([1]; 6.25 mcg/mL, 2 h prior to infection): 18.0%
Percent (%) reduction of influenza virus reproduction in MDCK cell culture relative to control ([1]; 6.25 mcg/mL, simultaneously with infection, 1st value of cell): 18.0%
Percent (%) reduction of influenza virus reproduction in MDCK cell culture relative to control ([1]; 6.25 mcg/mL, simultaneously with infection, 2nd value of cell): 0%
Percent (%) reduction of influenza virus reproduction in MDCK cell culture relative to control ([1]; 6.25 mcg/mL, simultaneously with infection, 3rd value of cell): 0%
Percent reduction of influenza virus reproduction in MDCK cell culture relative to control, average values ([1]; 6.25 mcg/mL, simultaneously with infection): 6.0%
Percent (%) reduction of influenza virus reproduction in MDCK cell culture relative to control ([1]; 12.5 mcg/mL, 2 h prior to infection, 1st value of cell): 47.0%
Percent (%) reduction of influenza virus reproduction in MDCK cell culture relative to control ([1]; 12.5 mcg/mL, 2 h prior to infection, 2nd value of cell): 74.0%
Percent (%) reduction of influenza virus reproduction in MDCK cell culture relative to control ([1]; 12.5 mcg/mL, 2 h prior to infection, 3rd value of cell): 9.5%
Percent reduction of influenza virus reproduction in MDCK cell culture relative to control, average values ([1]; 12.5 mcg/mL, 2 h prior to infection): 44.0%
Percent (%) reduction of influenza virus reproduction in MDCK cell culture relative to control ([1]; 12.5 mcg/mL, simultaneously with infection, 1st value of cell): 39.0%
Percent (%) reduction of influenza virus reproduction in MDCK cell culture relative to control ([1]; 12.5 mcg/mL, simultaneously with infection, 2nd value of cell): 13.0%
Percent (%) reduction of influenza virus reproduction in MDCK cell culture relative to control ([1]; 12.5 mcg/mL, simultaneously with infection, 3rd value of cell): 0%
Percent reduction of influenza virus reproduction in MDCK cell culture relative to control, average values ([1]; 12.5 mcg/mL, simultaneously with infection): 26%
Percent (%) reduction of influenza virus reproduction in MDCK cell culture relative to control ([1]; 25.0 mcg/mL, 2 h prior to infection, 1st value of cell): 41.0%
Percent (%) reduction of influenza virus reproduction in MDCK cell culture relative to control ([1]; 25.0 mcg/mL, 2 h prior to infection, 2nd value of cell): 79.0%
Percent (%) reduction of influenza virus reproduction in MDCK cell culture relative to control ([1]; 25.0 mcg/mL, 2 h prior to infection, 3rd value of cell): 12%
Percent reduction of influenza virus reproduction in MDCK cell culture relative to control, average values ([1]; 25.0 mcg/mL, 2 h prior to infection): 44.0%
Percent (%) reduction of influenza virus reproduction in MDCK cell culture relative to control ([1]; 25.0 mcg/mL, simultaneously with infection, 1st value of cell): 40.0%
Percent (%) reduction of influenza virus reproduction in MDCK cell culture relative to control ([1]; 25.0 mcg/mL, simultaneously with infection, 2nd value of cell): 0%
Percent reduction of influenza virus reproduction in MDCK cell culture relative to control, average values ([1]; 25.0 mcg/mL, simultaneously with infection): 20.0%
Percent (%) reduction of influenza virus reproduction in MDCK cell culture relative to control ([1]; 50.0 mcg/mL, 2 h prior to infection, 1st value of cell): 28.0%
Percent (%) reduction of influenza virus reproduction in MDCK cell culture relative to control ([1]; 50.0 mcg/mL, 2 h prior to infection, 2nd value of cell): 72.0%
Percent (%) reduction of influenza virus reproduction in MDCK cell culture relative to control ([1]; 50.0 mcg/mL, 2 h prior to infection, 3rd value of cell): 31.0%
Percent reduction of influenza virus reproduction in MDCK cell culture relative to control, average values ([1]; 50.0 mcg/mL, 2 h prior to infection): 44.0%
Percent (%) reduction of influenza virus reproduction in MDCK cell culture relative to control ([1]; 50.0 mcg/mL, simultaneously with infection, 1st value of cell): 33.0%
Percent (%) reduction of influenza virus reproduction in MDCK cell culture relative to control ([1]; 50.0 mcg/mL, simultaneously with infection, 2nd value of cell): 10.0%
Percent reduction of influenza virus reproduction in MDCK cell culture relative to control, average values ([1]; 50.0 mcg/mL, simultaneously with infection): 22.0%
Percent (%) reduction of influenza virus reproduction in MDCK cell culture relative to control ([1]; 100.0 mcg/mL, 2 h prior to infection, 1st value of cell): 4.0%
Percent (%) reduction of influenza virus reproduction in MDCK cell culture relative to control ([1]; 100.0 mcg/mL, 2 h prior to infection, 2nd value of cell): 0%
Percent (%) reduction of influenza virus reproduction in MDCK cell culture relative to control ([1]; 100.0 mcg/mL, 2 h prior to infection, 3rd value of cell): 20.0%
Percent reduction of influenza virus reproduction in MDCK cell culture relative to control, average values ([1]; 100.0 mcg/mL, 2 h prior to infection): 8%
Percent (%) reduction of influenza virus reproduction in MDCK cell culture relative to control ([1]; 100.0 mcg/mL, simultaneously with infection, 1st value of cell): 29.0%
Percent (%) reduction of influenza virus reproduction in MDCK cell culture relative to control ([1]; 100.0 mcg/mL, simultaneously with infection, 2nd value of cell): 28.0%
Percent reduction of influenza virus reproduction in MDCK cell culture relative to control, average values ([1]; 100.0 mcg/mL, simultaneously with infection): 29.0%
reproduction inhibitory activity in the MDCK cell culture ([1]; different dilutions of the agent): high reproduction inhibitory activity
Cell survival rate, % ([2]; 0.5 mcg/mL): 95%
Number of cells × 10^3/mL ([2]; 0.5 mcg/mL): 833 × 10^3/mL
Cell survival rate, % ([2]; 1.0 mcg/mL): 94%
Number of cells × 10^3/mL ([2]; 1.0 mcg/mL): 833 × 10^3/mL
Cell survival rate, % ([2]; 5.0 mcg/mL): 98%
Number of cells × 10^3/mL ([2]; 5.0 mcg/mL): 799 × 10^3/mL
Cell survival rate, % ([2]; 10.0 mcg/mL): 94%
Number of cells × 10^3/mL ([2]; 10.0 mcg/mL): 767 × 10^3/mL
Cell survival rate, % ([2]; 100 mcg/mL): 95%
cytotoxic effect on cells ([2]; concentrations of 0.5 to 10 mcg/mL): no cytotoxic effect
